In patent US11198681B2, “Heteroaryl inhibitors of PAD4” (Padlock Therapeutics, Inc., priority 2016, dated 2021):
Where two headings read alike, the source gives them in different places.

Target: hPAD4 (Homo sapiens (Human), UniProt Q9UM07)
Assay: hPAD4 AR assay (Table 2)
Format: biochemical
[1] = read-out: hPAD4 AR pIC50 (converted)

hPAD4, sequence (Q9UM07 whole entry): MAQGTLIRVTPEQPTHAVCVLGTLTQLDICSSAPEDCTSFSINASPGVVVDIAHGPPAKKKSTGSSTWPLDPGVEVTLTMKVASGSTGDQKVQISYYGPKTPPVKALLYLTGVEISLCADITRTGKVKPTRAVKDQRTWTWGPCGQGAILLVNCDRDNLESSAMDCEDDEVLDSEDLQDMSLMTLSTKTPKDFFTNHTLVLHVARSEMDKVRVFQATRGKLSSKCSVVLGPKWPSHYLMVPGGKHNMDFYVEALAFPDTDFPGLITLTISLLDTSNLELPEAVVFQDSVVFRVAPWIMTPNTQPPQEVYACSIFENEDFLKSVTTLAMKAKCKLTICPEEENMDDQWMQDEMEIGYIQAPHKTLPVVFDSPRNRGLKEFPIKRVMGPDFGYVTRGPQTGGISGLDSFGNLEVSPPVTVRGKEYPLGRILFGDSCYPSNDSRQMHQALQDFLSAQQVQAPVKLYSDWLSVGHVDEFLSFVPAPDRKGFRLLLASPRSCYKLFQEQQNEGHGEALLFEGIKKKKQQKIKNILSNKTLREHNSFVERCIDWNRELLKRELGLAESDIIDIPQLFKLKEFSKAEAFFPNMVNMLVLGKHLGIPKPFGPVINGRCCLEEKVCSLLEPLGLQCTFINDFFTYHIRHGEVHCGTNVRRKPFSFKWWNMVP

Row | SMILES | IC50 (read-out: hPAD4 AR IC50) [µM] | IC50 [1] [µM]
1 | COc1cc(C(=O)N2C[C@H]3CC[C@@H]2[C@@H]3N)cc2nc(-c3ccc(C#N)n3C3CC3)n(C)c12 [I-81, 5-{5-[(1R,4R,7R)-7-Amino-2-azabicyclo[2.2.1]heptane-2-carbonyl]-7-methoxy-1-methyl-1H-1,3-benzodiazol-2-yl}-1-cyclopropyl-1H-pyrrole-2-carbonitrile] | < 1 | < 1
2 | COc1cc(C(=O)N2C[C@H]3CC[C@@H]2[C@@H]3N)cc2nc(-c3ccc(C#N)n3CC(F)(F)F)n(C)c12 [I-82, 5-{5-[(1R,4R,7R)-7-Amino-2-azabicyclo[2.2.1]heptane-2-carbonyl]-7-methoxy-1-methyl-1H-1,3-benzodiazol-2-yl}-1-(2,2,2-trifluoroethyl)-1H-pyrrole-2-carbonitrile] | < 1 | < 1
3 | COc1cc(C(=O)N2C[C@H]3CC[C@@H]2[C@@H]3N)cc2nc(-c3ccc(C#N)n3C[C@@H](C)c3ccccc3)n(C)c12 [I-84] | < 1 | < 1
4 | COc1cc(C(=O)N2C[C@H]3CC[C@@H]2[C@@H]3N)cc2nc(-c3ccc(C#N)n3C[C@H](C)c3ccccc3)n(C)c12 [I-85] | < 1 | < 1
5 | CCn1c(-c2cnc(-c3ccccc3)n2CC2CC2)nc2cc(C(=O)N3C[C@H]4CC[C@@H]3[C@@H]4N)cc(OC)c21 [I-86, (1R,4R,7R)-2-{2-[1-(Cyclopropylmethyl)-2-phenyl-1H-imidazol-5-yl]-1-ethyl-7-methoxy-1H-1,3-benzodiazole-5-carbonyl}-2-azabicyclo[2.2.1]heptan-7-amine] | < 1 | < 1
6 | Cn1c(-c2cnc(-c3ccccc3)n2CC2CC2)nc2cc(C(=O)N3C[C@H]4CC[C@@H]3[C@@H]4N)cc(F)c21 [I-87] | < 1 | < 1
7 | COc1cccc(-c2nc3cc(C(=O)N4C[C@H]5CC[C@@H]4[C@@H]5N)cc(OC)c3n2C)n1 [I-88] | > 10 | 10 to 100
8 | COc1cc(C(=O)N2C[C@H]3CC[C@@H]2[C@@H]3N)cc2nc(-c3ccc(C#N)n3C[C@H]3C[C@@](C)(OC)C3)n(C)c12 [I-89, 5-{5-[(1R,4R,7R)-7-Amino-2-azabicyclo[2.2.1]heptane-2-carbonyl]-7-methoxy-1-methyl-1H-1,3-benzodiazol-2-yl}-1-{[(1R,3S)-3-methoxy-3-methylcyclobutyl]methyl}-1H-pyrrole-2-carbonitrile] | < 1 | < 1
9 | CCc1c(-c2nc3cc(C(=O)N4C[C@H]5CC[C@@H]4[C@@H]5N)cc(OC)c3n2C)ccn1S(=O)(=O)c1ccc(C)cc1 [I-92] | < 1 | < 1
10 | COc1cc(C(=O)N2C[C@H]3CC[C@@H]2[C@@H]3N)cc2nc(-c3cccc(=O)n3CC3CC3)n(C)c12 [I-102, 6-{5-[(1R,4R,7R)-7-Amino-2-azabicyclo[2.2.1]heptane-2-carbonyl]-7-methoxy-1-methyl-1H-1,3-benzodiazol-2-yl}-1-(cyclopropylmethyl)-1,2-dihydropyridin-2-one] | < 1 | < 1
11 | COc1cc(C(=O)N2C[C@H]3CC[C@@H]2[C@@H]3N)cc2nc(-c3cccnc3CC3CC3)n(C)c12 [I-105, (1R,4R,7R)-2-{2-[2-(Cyclopropylmethyl)pyridin-3-yl]-7-methoxy-1-methyl-1H-1,3-benzodiazole-5-carbonyl}-2-azabicyclo[2.2.1]heptan-7-amine] | < 1 | < 1
12 | COc1cc(C(=O)N2C[C@H]3CC[C@@H]2[C@@H]3N)cc2nc(-c3cccnc3CC3CC3C)n(C)c12 (some centres unmarked) [I-108] | < 1 | < 1
13 | COc1cc(C(=O)N2C[C@H]3CC[C@@H]2[C@@H]3N)cc2nc(-c3ccc(Br)c(=O)n3CC3CC3)n(C)c12 [I-111] | < 1 | < 1
14 | COc1cc(C(=O)N2C[C@H]3CC[C@@H]2[C@@H]3N)cc2nc(-c3ccc(C)c(=O)n3CC3CC3)n(C)c12 [I-112, 6-{5-[(1R,4R,7R)-7-Amino-2-azabicyclo[2.2.1]heptane-2-carbonyl]-7-methoxy-1-methyl-1H-1,3-benzodiazol-2-yl}-1-(cyclopropylmethyl)-3-methyl-1,2-dihydropyridin-2-one] | < 1 | < 1
15 | COc1cc(C(=O)N2C[C@H]3CC[C@@H]2[C@@H]3N)cc2nc(-c3ccc(C)nc3CC3CC3)n(C)c12 [I-115] | < 1 | < 1
16 | COc1cc(C(=O)N2C[C@H]3CC[C@@H]2[C@@H]3N)cc2nc(-c3ccc(F)nc3CC3CC3)n(C)c12 [I-117, (1R,4R,7R)-2-{2-[2-(Cyclopropylmethyl)-6-fluoropyridin-3-yl]-7-methoxy-1-methyl-1H-1,3-benzodiazole-5-carbonyl}-2-azabicyclo[2.2.1]heptan-7-amine] | < 1 | < 1
